Measured values published in US7323485B2, “4-(substituted cycloalkylmethyl) imidazole-2-thiones, 4-(substituted cycloalkenylmethyl) imidazole-2-thiones, 4-(substituted cycloalkylmethyl) imidazol-2-ones and 4-(substituted cycloalkenylmethyl) imidazol-2-ones and related compounds” (Allergan, Inc., priority 2002, dated 2008).

How the values were obtained:
[1] = target: T1, alpha2B adrenergic receptors (Homo sapiens, UniProt P18089); experiment: Receptor Selection and Amplification Technology (RSAT) assay, alpha2B; assay type: cell-based; settings: for EC50: NA = not active at concentrations less than 10 micromolar, read-out: Alpha 2B EC50; for Alpha 2B intrinsic activity: fraction of maximal effect of standard full agonist brimonidine (UK14304)
T1 construct: expressed in transfected cells; host or cells: NIH-3T3
T1 sequence (P18089 1-450): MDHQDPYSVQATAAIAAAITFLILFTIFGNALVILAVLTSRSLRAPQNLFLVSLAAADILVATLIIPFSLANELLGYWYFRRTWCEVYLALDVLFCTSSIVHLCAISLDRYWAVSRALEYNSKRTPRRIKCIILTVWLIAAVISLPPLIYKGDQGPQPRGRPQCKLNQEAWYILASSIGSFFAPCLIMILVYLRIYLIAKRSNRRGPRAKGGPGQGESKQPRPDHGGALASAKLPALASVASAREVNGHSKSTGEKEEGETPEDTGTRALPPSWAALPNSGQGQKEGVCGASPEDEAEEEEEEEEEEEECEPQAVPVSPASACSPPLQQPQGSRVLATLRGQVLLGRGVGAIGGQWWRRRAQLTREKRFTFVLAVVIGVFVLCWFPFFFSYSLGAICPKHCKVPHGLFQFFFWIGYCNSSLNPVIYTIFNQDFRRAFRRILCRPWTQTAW
Text: (§1) The imidazole-2-thione compounds of the invention are agonists of alpha2 adrenergic receptors, particularly they tend to be specific or selective agonists of alpha2B and/or to a lesser extent alpha2C adrenergic receptors, in preference over alpha2A adrenergic receptors. […] Al., 1995, Pharmacol. Toxicol. 76, pp. 308-311 (incorporated herein by reference) and is also described below. Another reference pertinent to this assay is Conklin et al. (1993) Nature 363:274-6, also incorporated herein by reference.
(§2) Receptor Selection and Amplification Technology (RSAT) Assay
(§3) The RSAT assay measures a receptor-mediated loss of contact inhibition that results in selective proliferation of receptor-containing cells in a mixed population of confluent cells. The increase in cell number is assessed with an appropriate transfected marker gene such as β-galactosidase, the activity of which can be easily measured in a 96-well format. Receptors that activate the G protein, Gq, elicit this response. Alpha2 receptors, which normally couple to Gi, activate the RSAT response when coexpressed with a hybrid Gq protein that has a Gi receptor recognition domain, called Gq/i5.
(§4) NIH-3T3 cells are plated at a density of 2×10^6 cells in 15 cm dishes and maintained in Dulbecco's modified Eagle's medium supplemented with 10% calf serum. One day later, cells are cotransfected by calcium phosphate precipitation with mammalian expression plasmids encoding p-SV-β-galactosidase (5-10 μg), receptor (1-2 μg) and G protein (1-2 μg). 40 μg salmon sperm DNA may also be included in the transfection mixture. Fresh media is added on the following day and 1-2 days later, cells are harvested and frozen in 50 assay aliquots. Cells are thawed and 100 μl added to 100 μl aliquots of various concentrations of drugs in triplicate in 96-well dishes. Incubations continue 72-96 hr at 37 EC. After washing with phosphate-buffered saline, β-galactosidase enzyme activity is determined by adding 200 μl of the chromogenic substrate (consisting of 3.5 mM o-nitrophenyl-β-D-galactopyranoside and 0.5% nonidet P-40 in phosphate buffered saline), incubating overnight at 30 EC and measuring optical density at 420 nm. The absorbance is a measure of enzyme activity, which depends on cell number and reflects a receptor-mediated cell proliferation. The EC50 and maximal effect of each drug at each alpha2 receptor is determined. The efficacy or intrinsic activity is calculated as a ratio of the maximal effect of the drug to the maximal effect of a standard full agonist for each receptor subtype. Brimonidine, also called UK14304, the chemical structure of which is shown below, is used as the standard agonist for the alpha2A, alpha2B and alpha2C receptors.
(§5) The results of the RSAT assay with several exemplary compounds of the invention are disclosed in Table 1 above together with the chemical formulas of these examplary compounds. […] NA stands for “not active” at concentrations less than 10 micromolar. As is known EC50 is the concentration at which half of a given compound's maximal activity is observed.

[2] = target: T2, alpha2C adrenergic receptors (Homo sapiens, UniProt P18825); experiment: Receptor Selection and Amplification Technology (RSAT) assay, alpha2C; assay type: cell-based; settings: for EC50: NA = not active at concentrations less than 10 micromolar, read-out: Alpha 2C EC50; for Alpha 2C intrinsic activity: fraction of maximal effect of standard full agonist brimonidine (UK14304)
T2 construct: expressed in transfected cells; host or cells: NIH-3T3
T2 sequence (P18825 1-462): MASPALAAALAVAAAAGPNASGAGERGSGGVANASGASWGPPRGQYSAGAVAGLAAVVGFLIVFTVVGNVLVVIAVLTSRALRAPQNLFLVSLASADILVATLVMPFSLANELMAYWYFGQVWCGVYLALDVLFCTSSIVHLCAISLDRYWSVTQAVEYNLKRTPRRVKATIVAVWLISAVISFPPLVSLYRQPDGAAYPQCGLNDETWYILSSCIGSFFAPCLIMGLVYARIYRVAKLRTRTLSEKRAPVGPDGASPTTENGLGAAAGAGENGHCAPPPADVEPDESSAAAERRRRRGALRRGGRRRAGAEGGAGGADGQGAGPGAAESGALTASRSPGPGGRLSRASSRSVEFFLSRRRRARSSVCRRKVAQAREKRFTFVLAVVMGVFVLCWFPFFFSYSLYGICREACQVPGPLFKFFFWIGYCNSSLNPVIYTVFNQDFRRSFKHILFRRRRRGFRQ
Text: as §1, §2, §3, §4, §5

| SMILES | EC50 [1] [nM] | Alpha 2B intrinsic activity [1] | EC50 [2] [nM] | Alpha 2C intrinsic activity [2] |
| --- | --- | --- | --- | --- |
| O=C1c2c(F)cccc2CCC1Cc1c[nH]c(=S)[nH]1 (stereo not drawn) | 172 | 0.76 | 107 | 0.35 |
| Fc1cc2c(cc1F)C(Cc1c[nH]c(=S)[nH]1)CC2 (stereo not drawn) | 354 | 0.363 | 662 | 0.38 |
| Cc1ccc2c(c1)C(Cc1c[nH]c(=S)[nH]1)CC2 (stereo not drawn) | 19 | 0.92 | 349 | 0.69 |
| S=c1[nH]cc(CC2CCC3=C2CCC3)[nH]1 (stereo not drawn) [drawing 15] | 5 | 0.87 | 110 | 0.43 |
| CC1=C(c2ccc(F)cc2)C(Cc2c[nH]c(=S)[nH]2)CC1 (stereo not drawn) | 51 | 0.78 | 22 | 0.95 |
| S=c1[nH]cc(CC2CCC=C2c2cccs2)[nH]1 (stereo not drawn) | 234 | 0.53 | 611 | 0.42 |
| S=c1[nH]cc(CC2CCCc3cccnc32)[nH]1 (stereo not drawn) | 236 | 1.07 | 2820 | 0.46 |
| Fc1ccc2c(c1)C(Cc1c[nH]c(=S)[nH]1)CC2 (stereo not drawn) | 34 | 1.01 | 42 | 0.63 |
| CC1Cc2ccccc2C1Cc1c[nH]c(=S)[nH]1 (stereo not drawn) | 578 | 1.1 | > 2000 | 0.57 |
| Fc1ccc(C2=CCCC2Cc2c[nH]c(=S)[nH]2)cc1 (stereo not drawn) | 459 | 0.68 | 152 | 0.77 |
| S=c1[nH]cc(CC2CCC=C2Cl)[nH]1 (stereo not drawn) | 28 | 0.9 | 116 | 0.55 |
| S=c1[nH]cc(C2Cc3cccc(I)c3C2)[nH]1 (stereo not drawn) | 7 | 0.96 | 101 | 0.49 |
| S=c1[nH]cc(C[C@H]2CCc3ccccc32)[nH]1 | 7.5 | 0.95 | 64 | 0.56 |
| S=c1[nH]cc(CC2C=CCCC2)[nH]1 (stereo not drawn) | 665 | 1.12 | > 2000 | 0.70 |
| O=C1c2c(CO)cccc2CCC1Cc1c[nH]c(=S)[nH]1 (stereo not drawn) | 162 | 0.95 | 306 | 0.34 |
| Cc1c(Cl)ccc2c1CC(c1c[nH]c(=S)[nH]1)C2 (stereo not drawn) | 14 | 0.91 | 561 | 0.45 |
| CC1=CCCCC1Cc1c[nH]c(=S)[nH]1 (stereo not drawn) | 85 | 1.07 | 677 | 1.13 |
| S=c1[nH]cc(CC2CCC=C2c2ccc(Cl)s2)[nH]1 (stereo not drawn) | 1100 | 0.69 | 2760 | 0.75 |
| CCC1=CCCCC1Cc1c[nH]c(=S)[nH]1 (stereo not drawn) | 161 | 1.0 | 331 | 1.0 |
| S=c1[nH]cc(CC2CCC3=C2CCCC3)[nH]1 (stereo not drawn) | 30 | 1.06 | 602 | 0.55 |
| S=c1[nH]cc(C2CCc3ccccc3C2)[nH]1 (stereo not drawn) | 34 | 1.03 | 423 | 0.52 |
| S=c1[nH]cc(C2Cc3ccc(Br)cc3C2)[nH]1 (stereo not drawn) | 28 | 0.87 | 321 | 0.38 |
| C=CC1=CCCC1Cc1c[nH]c(=S)[nH]1 (stereo not drawn) | 422 | 1.11 | > 2000 | 0.57 |
| CC1=C(c2ccc([N+](=O)[O-])cc2)C(Cc2c[nH]c(=S)[nH]2)CC1 (stereo not drawn) | 21 | – | 92 | – |
| S=c1[nH]cc(CC2CCc3c(Br)cccc32)[nH]1 (stereo not drawn) | 87 | 0.73 | 168 | 0.59 |
| S=c1[nH]cc(C2Cc3ccc(Cl)c(Cl)c3C2)[nH]1 (stereo not drawn) | 7 | 1 | 190 | 0.53 |
| Fc1cccc(C2=CCC[C@H]2Cc2c[nH]c(=S)[nH]2)c1 | 191 | 0.53 | 916 | 0.37 |
| Cc1cccc2c1CCC2Cc1c[nH]c(=S)[nH]1 (stereo not drawn) | 58 | 0.93 | 939 | 0.34 |
| Fc1cc(F)cc(C2=CCC[C@@H]2Cc2c[nH]c(=S)[nH]2)c1 | 1600 | 0.59 | 569 | 0.68 |
